Measurements taken from patent US5234947A, “Potassium channel activating compounds and methods of use thereof” (New York University, priority 1991, dated 1993).
Entries after “also recorded” stand apart in the source; their conditions may differ.

Key:
potassium channel = potassium channel activation (method not described); type: biochemical
craving for a cigarette = type: in vivo; conditions: cigarette smoking
Excerpt: The interference with the effects of withdrawal symptoms from addictive substances of the subject compounds is also consistent with potassium channel activation. […] As one gets a craving for a cigarette, there is a perception of muscular tension. The effects of potassium channel activators are to lower the blood pressure, relax the muscles and make breathing easier, all of which counteracts the feeling of craving one experiences upon withdrawal from an addictive substance.

[1] = molecular target: T1, large 200-220 pS channel (large Ca++-dependent K+ channel) (Rattus norvegicus, UniProt Q62976); assay: lipid bilayer technique, rat brain membranes fused with a bilayer on a patch-clamp pipette; type: biochemical
T1 construct: single-channel recording
T1 sequence (Q62976 whole entry, the tested form may be a part): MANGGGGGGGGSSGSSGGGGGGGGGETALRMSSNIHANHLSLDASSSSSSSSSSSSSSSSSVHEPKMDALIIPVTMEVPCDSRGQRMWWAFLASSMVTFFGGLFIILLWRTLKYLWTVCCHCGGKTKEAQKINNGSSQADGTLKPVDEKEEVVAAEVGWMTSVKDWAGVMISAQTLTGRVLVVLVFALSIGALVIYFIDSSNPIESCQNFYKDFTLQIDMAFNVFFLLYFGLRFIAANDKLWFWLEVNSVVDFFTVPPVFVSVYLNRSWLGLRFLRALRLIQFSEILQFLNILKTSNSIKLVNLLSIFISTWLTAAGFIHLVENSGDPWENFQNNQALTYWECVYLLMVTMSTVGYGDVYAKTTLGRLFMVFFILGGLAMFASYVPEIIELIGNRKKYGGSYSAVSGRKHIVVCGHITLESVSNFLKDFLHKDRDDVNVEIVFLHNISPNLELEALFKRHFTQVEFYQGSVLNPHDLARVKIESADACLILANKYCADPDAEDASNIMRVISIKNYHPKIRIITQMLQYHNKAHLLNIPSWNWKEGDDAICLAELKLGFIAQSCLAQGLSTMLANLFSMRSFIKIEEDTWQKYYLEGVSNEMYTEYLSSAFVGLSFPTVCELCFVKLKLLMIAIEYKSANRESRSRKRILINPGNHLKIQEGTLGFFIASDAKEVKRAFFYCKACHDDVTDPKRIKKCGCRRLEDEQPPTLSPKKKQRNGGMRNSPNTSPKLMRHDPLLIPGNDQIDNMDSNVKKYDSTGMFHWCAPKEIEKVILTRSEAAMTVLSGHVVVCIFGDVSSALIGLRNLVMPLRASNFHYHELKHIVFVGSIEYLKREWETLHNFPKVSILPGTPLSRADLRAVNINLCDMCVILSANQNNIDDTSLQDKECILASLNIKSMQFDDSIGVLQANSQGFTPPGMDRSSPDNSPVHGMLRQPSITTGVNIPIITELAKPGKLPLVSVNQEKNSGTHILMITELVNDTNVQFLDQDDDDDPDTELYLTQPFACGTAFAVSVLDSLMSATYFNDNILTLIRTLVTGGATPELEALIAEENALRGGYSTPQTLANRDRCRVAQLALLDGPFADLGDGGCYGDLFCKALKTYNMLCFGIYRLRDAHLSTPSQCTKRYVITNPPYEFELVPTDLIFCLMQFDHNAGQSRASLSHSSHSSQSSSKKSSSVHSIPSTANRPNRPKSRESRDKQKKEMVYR
Procedure: Isolated avena pyrone was studied for its action against ionic channels in cell membranes using the lipid bilayer technique. Membranes from rat brain were fused with a lipid bilayer formed across the opening of a patch-clamp pipette. Electrical activity was monitored using an Axon Instruments Axopatch amplifier using 100 mM symmetrical KCl solutions. In the presence of elevated levels of calcium, at least three types of potassium channel can be determined: a small 25-50 pS channel, a 90-120 pS channel, and a large 200-220 pS channel. In the absence of calcium in the bathing solutions, openings of the large 200 pS channel are rarely seen.
FIGS. 1 and 2 show the exposure of the channels to potassium in the presence of avena pyrone. In the two tracings in FIG. 1, the membrane potential was held at -25 mV. Under these conditions, the mid-sized K^+ channel is very active but the large channel is rarely open during the approximately 1.5 seconds shown. […] The effect is most pronounced under low calcium conditions.

| SMILES | potassium channel activation (potassium channel) | craving for a cigarette (craving for a cigarette) | activation of the large K+ channel ([1]; absence of calcium / low calcium, 100 mM symmetrical KCl, membrane potential -25 mV) | open times of the large channel ([1]; avena pyrone added to the bath, -25 mV) | open probability of the large channel ([1]; avena pyrone added to the bathing solution) | activation of the large channel ([1]; conditions of greater calcium concentration) |
| --- | --- | --- | --- | --- | --- | --- |
| COC1=CC(=O)O[C@@H](/C=C/c2ccccc2)C1 [kawain] | potassium channel activating substance | – | – | – | – | – |
| CC1CCCC(=O)O1 (stereo not drawn) [avena pyrone, 2H-6-methyltetrahydropyran-2-one] | – | reduce the craving for a cigarette | activation of the large K^+ channel is seen; also recorded: the large channel was activated | very long open times; also recorded: increased from a few milliseconds to times approaching seconds | increased open probability; also recorded: substantially increasing the open probability | still capable of activation of the channel but to a lesser degree |
